In assay [1] the test system is Cladosporium cucumerinum. Kind of assay: Antifungal activity against Cladosporium cucumerinum at 1 ug after 3 days by MTT assay. It counts as functional, organism-based. Background: Tetrazolium dyes change colour on reduction, which living cells bring about.
In assay [2] the test system is Candida albicans. Kind of assay: Antifungal activity against Candida albicans at 10 ug after 3 days by MTT assay. Format: functional, organism-based.
Assay [3] relates to Cladosporium cucumerinum. Description: Antifungal activity against Cladosporium cucumerinum at 5 ug after 3 days by MTT assay. It counts as functional, organism-based.
The test system of assay [4] is Radical scavenging activity. Kind of assay: Antioxidant activity assessed as DPPH radical scavenging activity at 1 ug. Format: functional. (Loss of DPPH colour is used to gauge radical scavenging.)
The subject of assay [5] is Radical scavenging activity. Kind of assay: Antioxidant activity assessed as DPPH radical scavenging activity at 10 ug. Format: functional.
Assay [6] deals with Candida albicans. Kind of assay: Antifungal activity against Candida albicans at 5 ug after 3 days by MTT assay. Format: functional, organism-based.
For assay [7], the system named is Cladosporium cucumerinum. Description: Antifungal activity against Cladosporium cucumerinum at 10 ug after 3 days by MTT assay. Format: functional, organism-based.
The test system of assay [8] is Radical scavenging activity. Description: Antioxidant activity assessed as DPPH radical scavenging activity at 5 ug. Format: functional.

Calls of active or inactive are those of the source. The rule behind the calls is not given here.

With `COc1cc(-c2cc(=O)c3c(O)cc(O)cc3o2)cc(OC)c1O`, the outcome with Cladosporium cucumerinum [1], in the assay with Candida albicans [2], in the assay with Cladosporium cucumerinum [3], in the assay on Candida albicans [6] and in the assay on Cladosporium cucumerinum [7] was inactive. In addition, the outcome in assay [4], in assay [5] and in assay [8] was Active.
Turning to `COc1cc(O)c2c(=O)c(-c3ccc(O)cc3OC)coc2c1`, the result (in the assay on Cladosporium cucumerinum [1]; with Candida albicans [2]; in the assay on Cladosporium cucumerinum [3]; in assay [4]; with Candida albicans [6]; with Cladosporium cucumerinum [7]) was inactive. For the same compound, the outcome in assay [5] and in assay [8] was Active.
For `C=C(C)C(O)Cc1c(O)cc(O)c2c1OC(c1ccc(O)cc1)CC2=O` (centres undefined), in the assay on Cladosporium cucumerinum [1], the result was inactive. Moreover, the outcome (with Candida albicans [2]; in the assay with Cladosporium cucumerinum [3]; in assay [4]; in assay [5]; in the assay with Candida albicans [6]; with Cladosporium cucumerinum [7]) was Active. Further, the outcome in assay [8] was Active.
As for `COc1cc(O)c2c(=O)c(-c3ccc(O)c(C)c3OC)coc2c1`, the result with Cladosporium cucumerinum [1], in the assay on Cladosporium cucumerinum [3] and with Cladosporium cucumerinum [7] was Active. Further, the outcome (in the assay on Candida albicans [2]; in assay [4]; in assay [5]; with Candida albicans [6]; in assay [8]) was inactive.
In the case of `CC1(C)C=Cc2c(cc(O)c3c(=O)c(-c4ccc(O)cc4O)coc23)O1`, the result (in the assay with Cladosporium cucumerinum [1]; in the assay with Candida albicans [2]; with Cladosporium cucumerinum [3]; in assay [4]; in assay [5]; in the assay on Candida albicans [6]) was Active. Moreover, the outcome (in the assay on Cladosporium cucumerinum [7]; in assay [8]) was Active.
With `CC1(C)C=Cc2c(cc3occ(-c4ccc(O)cc4O)c(=O)c3c2O)O1`, the result (with Cladosporium cucumerinum [1]; with Candida albicans [2]; in the assay on Cladosporium cucumerinum [3]; in assay [4]; in assay [5]; with Candida albicans [6]) was Active. Besides, the result (in the assay with Cladosporium cucumerinum [7]; in assay [8]) was Active.
For `COc1cc(O)c2c(=O)c(-c3ccc(O)cc3O)coc2c1`, the outcome with Cladosporium cucumerinum [1], in the assay with Cladosporium cucumerinum [3] and in the assay with Cladosporium cucumerinum [7] was Active. Further, the result (in the assay with Candida albicans [2]; in assay [4]; in assay [5]; with Candida albicans [6]; in assay [8]) was inactive.
Consider `COc1cc(O)c2c(=O)c(-c3ccc(O)c(C)c3O)coc2c1`, for which the outcome in the assay with Cladosporium cucumerinum [1] and in the assay on Cladosporium cucumerinum [3] was inactive. For the same compound, the outcome (in the assay on Candida albicans [2]; in assay [4]; in assay [5]; with Candida albicans [6]; in the assay on Cladosporium cucumerinum [7]; in assay [8]) was Active.

(Values after ChEMBL document CHEMBL1141755, “Flavonoids from the stem of Eriophorum scheuchzeri” (J Nat Prod, 2005).)
